Assay results taken from publication PMC6992764 (Nature Communications, 2020).

How the values were obtained:
C603S FROUNT = biological target: T1, C603S FROUNT (Homo sapiens, UniProt Q9BW27, C603S/L538E/P612S); test: NMR titration of C603S FROUNT mutant; type: binding; settings: 50 µM DSF, 50 µM mutant
T1 construct: 50 µM CRBD of FROUNT (a.a. 532–656) bearing the L538E/P612S mutations or its mutant (C603S); made in house
T1 sequence (Q9BW27 532-656 L538E/C603S/P612S): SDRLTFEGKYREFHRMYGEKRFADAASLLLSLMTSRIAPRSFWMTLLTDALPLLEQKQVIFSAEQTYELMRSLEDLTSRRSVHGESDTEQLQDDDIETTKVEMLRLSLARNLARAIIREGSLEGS
Experimental: All ^1H–^15N heteronuclear single quantum correlation (HSQC) NMR spectra were measured at 25 °C on a Bruker 600-MHz AVANCE III spectrometer with a cryogenic probe. […] The assignments of the backbone ^1H^N and ^15N NMR signals of CRBD were performed, based on the previous paper. […] Combined chemical shift differences Δδ was calculated by Δδ = [(ΔδHN)^2 + (ΔδN/6.5)^2]^1/2, where ΔδHN and ΔδN are the chemical shift differences for ^1H^N and ^15N, respectively.

[1] = test system: MMTV-PyVT spontaneous mammary tumor; test: MMTV-PyVT spontaneous mammary tumor model; type: in vivo, mice; settings: treatment from age of 17 weeks
B16 melanoma = test: B16 lung metastasis model; type: in vivo, C57BL/6 mice
Experimental: For evaluating subcutaneous tumor growth, LLC or B16 cells (5 × 10^5) in 50 μl PBS were inoculated subcutaneously into the right flanks of mice. Mice were euthanized when their tumor volumes reached 4000 mm^3. Tumor sizes were measured twice a week using calipers. Tumor volume was calculated using the following formula: Volume = (width)^2 × length/2. For the lung metastasis model, 1 × 10^6 LLC or B16 cells in 200 μl PBS were injected intravenously into mice. Mice were euthanized at day 10 after tumor injection for the LLC model and day 5–9 for the B16 model, and the lungs were isolated after perfusion with PBS via the left ventricle. Visible lung metastases were counted in the left lobe. The diameters of metastatic nodules in the lung lobe image were measured using ImageJ software. […] Anti-PD-1 antibody (clone J43, BioXcell) was injected intraperitoneally at a dose of 200 μg per mouse on day 5, 8, 14, and 18 after tumor inoculation. Mice were anesthetized and perfused with PBS and the left lungs were isolated. […] Fluorescence images derived from B16-DsRed cells and stained antibodies were obtained using an SP5 confocal microscope (Leica Microsystems). The F4/80 + macrophage number accumulated in and around the tumor nodule visualized by fluorescent protein was counted per nodule of similar sizes among the control and FROUNT-cKO, vehicle, or DSF-treated groups.

THP-1 cells = test: Cell viability alongside chemotaxis assay; type: cell-based, human; settings: at the concentrations tested in chemotaxis
B16 tumor cells = test: B16 tumor cell growth (WST-1 assay); type: cell-based; settings: B16, 48 h
Experimental: (§1) To evaluate the effects of compounds on cell growth, cells were incubated with inhibitors for 48 h, then WST-1 (Dojindo) was added to the culture for the final 30 min. An Envision instrument (PerkinElmer) was used to measure the absorbance of each well at 450 nm versus a 650-nm reference to detect the amount of formazan produced from WST-1 by mitochondrial dehydrogenases in viable cells.

p53-MDM2 interaction = p53-MDM2 interaction (Homo sapiens, UniProt Q00987); test: HTRF p53-MDM2 interaction counter assay; type: binding
p53-MDM2 interaction, sequence (Q00987 whole entry): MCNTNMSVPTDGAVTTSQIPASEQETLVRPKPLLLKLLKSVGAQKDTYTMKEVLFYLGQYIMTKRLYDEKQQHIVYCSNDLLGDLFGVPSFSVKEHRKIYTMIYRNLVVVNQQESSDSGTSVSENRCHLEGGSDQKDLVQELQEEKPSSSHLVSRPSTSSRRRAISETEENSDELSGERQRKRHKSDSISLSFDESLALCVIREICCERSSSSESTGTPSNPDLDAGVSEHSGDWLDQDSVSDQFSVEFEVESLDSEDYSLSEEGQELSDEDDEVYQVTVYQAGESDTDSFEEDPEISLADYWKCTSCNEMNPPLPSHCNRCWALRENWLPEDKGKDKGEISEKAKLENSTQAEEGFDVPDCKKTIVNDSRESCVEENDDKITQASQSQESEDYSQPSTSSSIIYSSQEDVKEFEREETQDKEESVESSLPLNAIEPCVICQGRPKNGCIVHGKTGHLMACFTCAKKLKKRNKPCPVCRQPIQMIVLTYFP

LLC tumor cells = test: LLC tumor cell growth (WST-1 assay); type: cell-based; settings: 48 h
Experimental: as §1

FROUNT-CCR5 interaction = biological target: T2, FROUNT-CCR5 interaction (Homo sapiens, UniProt Q9BW27); test: HTRF FROUNT-CCR5 interaction assay; type: binding
T2 construct: GST-fused FROUNT (FNT-C)
T2 sequence (Q9BW27 500-656 limits assumed): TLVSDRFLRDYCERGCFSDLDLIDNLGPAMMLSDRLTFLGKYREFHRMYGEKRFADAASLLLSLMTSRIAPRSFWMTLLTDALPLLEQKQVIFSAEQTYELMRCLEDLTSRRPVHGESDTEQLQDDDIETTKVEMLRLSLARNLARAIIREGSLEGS

FROUNT-CCR2 interaction = biological target: T3, FROUNT-CCR2 interaction (Homo sapiens, UniProt Q9BW27); test: HTRF FROUNT-CCR2 interaction assay; type: binding
T3 construct: GST-fused FROUNT (FNT-C)
T3 sequence (Q9BW27 500-656 limits assumed): T2 sequence (Q9BW27 500-656 limits assumed)

[2] = biological target: T4, Full-length FROUNT protein (Homo sapiens, UniProt Q9BW27); test: Surface plasmon resonance binding to FROUNT; settings: SPR, concentration-dependent
T4 construct: made in house
T4 sequence (Q9BW27 1-656): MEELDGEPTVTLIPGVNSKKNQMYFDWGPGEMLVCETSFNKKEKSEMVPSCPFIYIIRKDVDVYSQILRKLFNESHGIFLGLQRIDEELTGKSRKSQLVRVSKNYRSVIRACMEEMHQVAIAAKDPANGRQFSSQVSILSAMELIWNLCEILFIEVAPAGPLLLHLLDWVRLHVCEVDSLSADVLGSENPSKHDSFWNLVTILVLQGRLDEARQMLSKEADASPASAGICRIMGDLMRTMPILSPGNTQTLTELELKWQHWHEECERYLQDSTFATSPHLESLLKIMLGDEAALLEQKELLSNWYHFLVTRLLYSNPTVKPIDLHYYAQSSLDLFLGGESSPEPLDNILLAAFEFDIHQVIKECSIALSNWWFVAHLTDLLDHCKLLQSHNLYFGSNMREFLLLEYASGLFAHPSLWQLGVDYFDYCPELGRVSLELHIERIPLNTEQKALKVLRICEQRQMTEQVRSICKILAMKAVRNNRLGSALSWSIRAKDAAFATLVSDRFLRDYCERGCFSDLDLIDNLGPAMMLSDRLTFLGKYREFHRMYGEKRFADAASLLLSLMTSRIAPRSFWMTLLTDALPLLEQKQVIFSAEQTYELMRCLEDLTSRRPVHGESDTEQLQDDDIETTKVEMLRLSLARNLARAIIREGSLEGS
Experimental: Interactions between FROUNT and library compounds were analyzed by surface plasmon resonance using a Biacore T100 (GE Healthcare). Full-length FROUNT protein or the FROUNT-binding region of CCR2 was immobilized on the CM5 sensor chip[56]. […] The resonance unit (RU) was measured during the binding and washing periods, and the binding kinetics were analyzed. Solvent correction with DMSO was performed using Biacore T100 evaluation software.

For CCN(CC)C(=S)SSC(=S)N(CC)CC [DSF, disulfiram], the “binding to C603S FROUNT” value (C603S FROUNT) was “No significant binding”, the “growth of established tumors” value [1] was “impaired” and the “lung metastatic nodule formation” value (B16 melanoma; B16 i.v., DSF 40 mg kg-1 i.p. daily) was “significantly reduced”. For the same compound, the “macrophage accumulation around tumor metastatic nodules” value (B16 melanoma; day 12 after B16 tumor cell injection, F4/80) was “diminished”, the “cytotoxicity (cell viability)” value (THP-1 cells) was “without any cytotoxicity” and the in vitro growth (B16 tumor cells) was “no effect”. For the same compound, the “effect on p53-MDM2 interaction” value (p53-MDM2 interaction; HTRF) was “did not affect”, the IC50 (p53-MDM2 interaction; HTRF titration assay) was > 1000 nM and the in vitro growth (LLC tumor cells) was “no effect”. The “inhibition of FROUNT-CCR5 interaction” value (FROUNT-CCR5 interaction) was “specifically inhibited”, the “inhibition of FROUNT-CCR2 interaction” value (FROUNT-CCR2 interaction; HTRF) was “specifically inhibited” and the IC50 (FROUNT-CCR2 interaction; HTRF titration assay) was 42 nM. For the same compound, the “binding to FROUNT protein” value [2] was “directly binds”.
